Assay results reported in publication PMC6901910, “Molecular Basis of C-30 Product Regioselectivity of Legume Oxidases Involved in High-Value Triterpenoid Biosynthesis” (Frontiers in Plant Science, 2019).

Experiments:
Experiment in all cases: in vivo yeast assay, GC-MS of products
CYP72A63 [1] = molecular target: T1, CYP72A63 (Medicago truncatula, UniProt H1A981, L149V/L398V); format: cell-based; conditions: beta-amyrin formed in the cell by co-expressed OSC1; L. japonicus CPR; 30°C, 4 days
T1 construct: full length, expressed in S. cerevisiae INVSc1 with Lotus japonicus CPR and beta-amyrin synthase OSC1
T1 sequence (H1A981 whole entry L149V/L398V, the tested form may be a part): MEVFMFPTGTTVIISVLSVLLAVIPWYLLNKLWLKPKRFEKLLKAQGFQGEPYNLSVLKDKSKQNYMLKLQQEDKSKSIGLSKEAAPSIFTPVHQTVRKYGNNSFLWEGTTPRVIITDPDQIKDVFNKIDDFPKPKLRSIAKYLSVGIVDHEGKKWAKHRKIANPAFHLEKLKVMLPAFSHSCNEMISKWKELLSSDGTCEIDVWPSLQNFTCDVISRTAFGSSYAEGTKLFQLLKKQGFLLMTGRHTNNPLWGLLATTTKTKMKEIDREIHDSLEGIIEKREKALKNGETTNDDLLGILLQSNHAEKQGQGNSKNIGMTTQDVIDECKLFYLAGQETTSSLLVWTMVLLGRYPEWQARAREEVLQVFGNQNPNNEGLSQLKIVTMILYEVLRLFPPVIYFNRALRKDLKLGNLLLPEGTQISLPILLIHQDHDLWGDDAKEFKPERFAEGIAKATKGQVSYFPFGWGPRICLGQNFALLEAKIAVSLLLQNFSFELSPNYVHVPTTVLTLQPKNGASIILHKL

PvCYP72A302 = molecular target: T2, PvCYP72A302 (Phaseolus vulgaris, UniProt A0A5P8TXN3); format: cell-based; conditions: beta-amyrin formed in the cell by co-expressed OSC1; L. japonicus CPR; 30°C, 4 days
T2 construct: gene CYP72A302; full length, expressed in S. cerevisiae INVSc1 with Lotus japonicus CPR and beta-amyrin synthase OSC1
T2 sequence (A0A5P8TXN3 entry or part of it): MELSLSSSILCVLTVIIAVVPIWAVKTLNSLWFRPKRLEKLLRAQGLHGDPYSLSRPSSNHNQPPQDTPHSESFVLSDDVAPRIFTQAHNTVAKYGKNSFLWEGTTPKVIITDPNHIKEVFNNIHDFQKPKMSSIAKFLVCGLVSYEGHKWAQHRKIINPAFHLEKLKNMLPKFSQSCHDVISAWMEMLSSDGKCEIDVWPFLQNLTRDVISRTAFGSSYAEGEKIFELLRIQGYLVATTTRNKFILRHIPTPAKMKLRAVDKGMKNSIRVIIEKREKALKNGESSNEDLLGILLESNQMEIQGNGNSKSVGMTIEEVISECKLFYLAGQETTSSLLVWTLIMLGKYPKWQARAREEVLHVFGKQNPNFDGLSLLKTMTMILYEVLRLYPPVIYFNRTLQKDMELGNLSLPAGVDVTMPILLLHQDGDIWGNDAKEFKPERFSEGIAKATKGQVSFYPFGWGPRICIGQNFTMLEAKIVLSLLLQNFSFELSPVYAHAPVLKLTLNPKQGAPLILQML

CYP72A559 = molecular target: T3, CYP72A559 (Medicago truncatula, UniProt A0A5P8TXY6); format: cell-based; conditions: beta-amyrin formed in the cell by co-expressed OSC1; L. japonicus CPR; 30°C, 4 days
T3 construct: full length, expressed in S. cerevisiae INVSc1 with Lotus japonicus CPR and beta-amyrin synthase OSC1
T3 sequence (A0A5P8TXY6 1-518): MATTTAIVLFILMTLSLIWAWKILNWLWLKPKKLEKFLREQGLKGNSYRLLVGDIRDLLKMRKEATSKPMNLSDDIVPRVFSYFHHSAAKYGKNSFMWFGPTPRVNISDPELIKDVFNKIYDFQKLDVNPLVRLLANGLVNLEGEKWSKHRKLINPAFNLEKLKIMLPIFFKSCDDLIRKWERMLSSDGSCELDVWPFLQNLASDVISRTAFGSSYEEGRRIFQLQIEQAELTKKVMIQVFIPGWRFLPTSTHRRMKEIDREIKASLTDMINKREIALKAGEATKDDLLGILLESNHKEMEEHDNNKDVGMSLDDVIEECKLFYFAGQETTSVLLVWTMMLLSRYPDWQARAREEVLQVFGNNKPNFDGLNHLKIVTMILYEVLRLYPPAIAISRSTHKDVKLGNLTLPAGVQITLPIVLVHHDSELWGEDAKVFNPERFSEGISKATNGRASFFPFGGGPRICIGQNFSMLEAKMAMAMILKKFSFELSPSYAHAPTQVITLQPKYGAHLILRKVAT

Gmax CYP72A141 = molecular target: T4, Gmax CYP72A141 (Glycine max, UniProt A0A5P8TY68); format: cell-based; conditions: beta-amyrin formed in the cell by co-expressed OSC1; L. japonicus CPR; 30°C, 4 days
T4 construct: full length, expressed in S. cerevisiae INVSc1 with Lotus japonicus CPR and beta-amyrin synthase OSC1

CYP72A560 = molecular target: T5, CYP72A560 (Medicago truncatula, UniProt A0A5P8TXP5); format: cell-based; conditions: beta-amyrin formed in the cell by co-expressed OSC1; L. japonicus CPR; 30°C, 4 days
T5 construct: full length, expressed in S. cerevisiae INVSc1 with Lotus japonicus CPR and beta-amyrin synthase OSC1
T5 sequence (A0A5P8TXP5 1-518): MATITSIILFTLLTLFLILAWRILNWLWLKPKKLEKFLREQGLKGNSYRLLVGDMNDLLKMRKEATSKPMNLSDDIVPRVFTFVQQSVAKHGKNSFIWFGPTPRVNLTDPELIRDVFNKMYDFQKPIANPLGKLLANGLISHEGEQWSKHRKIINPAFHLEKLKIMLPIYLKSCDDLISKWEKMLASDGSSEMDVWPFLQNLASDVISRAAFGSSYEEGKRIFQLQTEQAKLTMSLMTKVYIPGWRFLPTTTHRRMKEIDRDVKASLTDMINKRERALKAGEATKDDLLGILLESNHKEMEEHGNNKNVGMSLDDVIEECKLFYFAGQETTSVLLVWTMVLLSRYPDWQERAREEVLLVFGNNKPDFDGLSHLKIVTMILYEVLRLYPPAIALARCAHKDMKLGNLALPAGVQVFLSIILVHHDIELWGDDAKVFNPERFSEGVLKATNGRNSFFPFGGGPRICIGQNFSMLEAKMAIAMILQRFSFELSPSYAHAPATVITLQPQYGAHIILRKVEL

GgCYP72A154 = molecular target: T6, GgCYP72A154 (Glycyrrhiza glabra, UniProt A0A5P8TXJ1); format: cell-based; conditions: beta-amyrin formed in the cell by co-expressed OSC1; L. japonicus CPR; 30°C, 4 days
T6 construct: gene CYP72A154; full length, expressed in S. cerevisiae INVSc1 with Lotus japonicus CPR and beta-amyrin synthase OSC1
T6 sequence (A0A5P8TXJ1 1-523): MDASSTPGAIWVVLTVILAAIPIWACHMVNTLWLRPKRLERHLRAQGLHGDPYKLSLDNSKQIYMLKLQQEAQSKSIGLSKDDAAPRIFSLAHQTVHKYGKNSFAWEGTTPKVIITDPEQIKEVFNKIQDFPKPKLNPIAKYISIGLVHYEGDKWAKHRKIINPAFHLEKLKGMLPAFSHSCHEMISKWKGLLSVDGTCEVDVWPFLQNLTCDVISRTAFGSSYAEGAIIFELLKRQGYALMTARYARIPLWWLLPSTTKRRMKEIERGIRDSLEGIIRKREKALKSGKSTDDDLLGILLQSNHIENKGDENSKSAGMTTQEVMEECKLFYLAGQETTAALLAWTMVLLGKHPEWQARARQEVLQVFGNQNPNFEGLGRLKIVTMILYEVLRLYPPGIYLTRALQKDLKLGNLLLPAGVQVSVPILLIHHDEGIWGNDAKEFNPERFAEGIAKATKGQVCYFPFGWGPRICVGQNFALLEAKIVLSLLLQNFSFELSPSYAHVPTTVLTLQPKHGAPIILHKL

CYP72A66v2 = molecular target: T7, CYP72A66v2 (Medicago truncatula, UniProt A0A5P8TY60); format: cell-based; conditions: beta-amyrin formed in the cell by co-expressed OSC1; L. japonicus CPR; 30°C, 4 days
T7 construct: full length, expressed in S. cerevisiae INVSc1 with Lotus japonicus CPR and beta-amyrin synthase OSC1

CYP72A63 [2] = molecular target: T8, CYP72A63 (Medicago truncatula, UniProt H1A981); format: cell-based; conditions: beta-amyrin formed in the cell by co-expressed OSC1; L. japonicus CPR; 30°C, 4 days
T8 construct: full length, expressed in S. cerevisiae INVSc1 with Lotus japonicus CPR and beta-amyrin synthase OSC1
T8 sequence (H1A981 1-524): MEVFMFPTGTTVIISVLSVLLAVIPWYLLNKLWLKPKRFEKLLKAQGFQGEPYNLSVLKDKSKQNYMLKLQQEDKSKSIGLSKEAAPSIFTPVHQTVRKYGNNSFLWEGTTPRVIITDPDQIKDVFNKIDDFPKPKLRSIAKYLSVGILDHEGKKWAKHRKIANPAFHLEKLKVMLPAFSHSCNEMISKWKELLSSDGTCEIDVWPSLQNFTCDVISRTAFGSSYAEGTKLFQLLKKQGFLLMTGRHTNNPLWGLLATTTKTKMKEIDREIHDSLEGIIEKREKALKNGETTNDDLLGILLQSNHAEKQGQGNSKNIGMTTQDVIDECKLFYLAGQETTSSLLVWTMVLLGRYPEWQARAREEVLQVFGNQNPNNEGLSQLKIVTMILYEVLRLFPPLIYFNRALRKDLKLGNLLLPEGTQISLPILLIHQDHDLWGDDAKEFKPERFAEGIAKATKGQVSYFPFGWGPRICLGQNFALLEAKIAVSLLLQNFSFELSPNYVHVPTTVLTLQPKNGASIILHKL

TpCYP72A699 = molecular target: T9, TpCYP72A699 (Trifolium pratense, UniProt A0A5P8TXT7); format: cell-based; conditions: beta-amyrin formed in the cell by co-expressed OSC1; L. japonicus CPR; 30°C, 4 days
T9 construct: gene CYP72A699; full length, expressed in S. cerevisiae INVSc1 with Lotus japonicus CPR and beta-amyrin synthase OSC1
T9 sequence (A0A5P8TXT7 entry or part of it): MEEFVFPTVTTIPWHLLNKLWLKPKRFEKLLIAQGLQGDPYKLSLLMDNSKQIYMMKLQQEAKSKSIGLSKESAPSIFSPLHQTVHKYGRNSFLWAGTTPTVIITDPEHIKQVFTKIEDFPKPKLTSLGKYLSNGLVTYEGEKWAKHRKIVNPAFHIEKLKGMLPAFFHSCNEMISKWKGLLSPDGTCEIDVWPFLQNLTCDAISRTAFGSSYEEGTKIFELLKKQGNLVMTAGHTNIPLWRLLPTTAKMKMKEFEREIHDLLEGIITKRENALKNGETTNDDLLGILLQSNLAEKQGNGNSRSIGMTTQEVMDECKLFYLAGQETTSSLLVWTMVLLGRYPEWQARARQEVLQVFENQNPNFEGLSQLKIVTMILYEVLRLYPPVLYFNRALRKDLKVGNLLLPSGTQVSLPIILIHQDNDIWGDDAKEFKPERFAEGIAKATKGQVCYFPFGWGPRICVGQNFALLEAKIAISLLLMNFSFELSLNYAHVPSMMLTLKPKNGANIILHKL

CYP72A62v2 = molecular target: T10, CYP72A62v2 (Medicago truncatula, UniProt H1A982, V149L/V398L); conditions: beta-amyrin formed in the cell by co-expressed OSC1; L. japonicus CPR; 30°C, 4 days; CYP72A63-based numbering
T10 construct: full length, expressed in S. cerevisiae INVSc1 with Lotus japonicus CPR and beta-amyrin synthase OSC1
T10 sequence (H1A982 entry or part of it V149L/V398L): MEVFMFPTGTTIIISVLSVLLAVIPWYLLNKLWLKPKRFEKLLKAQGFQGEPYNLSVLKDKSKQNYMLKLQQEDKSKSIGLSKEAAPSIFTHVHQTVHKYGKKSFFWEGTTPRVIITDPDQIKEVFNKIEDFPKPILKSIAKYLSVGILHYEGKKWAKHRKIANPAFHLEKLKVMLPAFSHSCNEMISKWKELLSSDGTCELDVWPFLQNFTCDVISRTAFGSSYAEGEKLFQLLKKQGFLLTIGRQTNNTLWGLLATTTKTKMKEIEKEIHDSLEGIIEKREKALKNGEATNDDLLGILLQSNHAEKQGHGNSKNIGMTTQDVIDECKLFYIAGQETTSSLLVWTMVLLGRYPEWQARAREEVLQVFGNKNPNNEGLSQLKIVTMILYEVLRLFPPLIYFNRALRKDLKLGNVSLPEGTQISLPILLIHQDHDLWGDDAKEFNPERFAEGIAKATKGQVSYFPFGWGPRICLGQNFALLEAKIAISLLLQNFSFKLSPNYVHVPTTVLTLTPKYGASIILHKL

CYP72A61v2 = molecular target: T11, CYP72A61v2 (Medicago truncatula, UniProt H1A980); format: cell-based; conditions: beta-amyrin formed in the cell by co-expressed OSC1; L. japonicus CPR; 30°C, 4 days
T11 construct: full length, expressed in S. cerevisiae INVSc1 with Lotus japonicus CPR and beta-amyrin synthase OSC1
T11 sequence (H1A980 entry or part of it): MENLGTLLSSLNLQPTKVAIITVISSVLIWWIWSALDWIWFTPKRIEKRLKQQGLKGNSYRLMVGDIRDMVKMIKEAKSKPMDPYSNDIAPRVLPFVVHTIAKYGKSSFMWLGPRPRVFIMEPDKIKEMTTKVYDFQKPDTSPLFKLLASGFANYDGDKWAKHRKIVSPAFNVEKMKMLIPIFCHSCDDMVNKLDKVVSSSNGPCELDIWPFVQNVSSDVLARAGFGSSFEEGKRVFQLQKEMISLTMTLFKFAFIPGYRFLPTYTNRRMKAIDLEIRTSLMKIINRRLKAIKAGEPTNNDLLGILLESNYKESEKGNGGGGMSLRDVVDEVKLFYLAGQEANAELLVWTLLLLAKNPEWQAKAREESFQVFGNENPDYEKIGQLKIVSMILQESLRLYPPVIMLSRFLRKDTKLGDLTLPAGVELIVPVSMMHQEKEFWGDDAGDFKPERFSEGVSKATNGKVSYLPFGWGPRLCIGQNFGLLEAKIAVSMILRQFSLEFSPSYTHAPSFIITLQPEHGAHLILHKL

GuCYP72A154 = molecular target: T12, GuCYP72A154 (Glycyrrhiza uralensis, UniProt H1A988); format: cell-based; conditions: beta-amyrin formed in the cell by co-expressed OSC1; L. japonicus CPR; 30°C, 4 days
T12 construct: gene CYP72A154; full length, expressed in S. cerevisiae INVSc1 with Lotus japonicus CPR and beta-amyrin synthase OSC1
T12 sequence (H1A988 whole entry): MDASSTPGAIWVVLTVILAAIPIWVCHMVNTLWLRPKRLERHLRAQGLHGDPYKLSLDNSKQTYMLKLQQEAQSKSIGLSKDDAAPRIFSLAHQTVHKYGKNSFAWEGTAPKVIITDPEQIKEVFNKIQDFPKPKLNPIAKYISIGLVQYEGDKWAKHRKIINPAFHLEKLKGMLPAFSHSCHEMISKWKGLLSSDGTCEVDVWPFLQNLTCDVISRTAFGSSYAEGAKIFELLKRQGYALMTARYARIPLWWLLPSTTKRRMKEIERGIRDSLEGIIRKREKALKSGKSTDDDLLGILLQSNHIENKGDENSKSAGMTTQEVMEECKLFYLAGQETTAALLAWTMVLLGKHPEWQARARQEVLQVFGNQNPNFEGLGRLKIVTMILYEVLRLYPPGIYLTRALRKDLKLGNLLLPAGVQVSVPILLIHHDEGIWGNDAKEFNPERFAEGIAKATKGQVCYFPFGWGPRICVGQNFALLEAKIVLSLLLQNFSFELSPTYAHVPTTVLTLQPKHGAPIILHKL

LjCYP72A697 = molecular target: T13, LjCYP72A697 (Lotus japonicus, UniProt A0A5P8TXS9); format: cell-based; conditions: beta-amyrin formed in the cell by co-expressed OSC1; L. japonicus CPR; 30°C, 4 days
T13 construct: gene CYP72A697; full length, expressed in S. cerevisiae INVSc1 with Lotus japonicus CPR and beta-amyrin synthase OSC1
T13 sequence (A0A5P8TXS9 entry or part of it): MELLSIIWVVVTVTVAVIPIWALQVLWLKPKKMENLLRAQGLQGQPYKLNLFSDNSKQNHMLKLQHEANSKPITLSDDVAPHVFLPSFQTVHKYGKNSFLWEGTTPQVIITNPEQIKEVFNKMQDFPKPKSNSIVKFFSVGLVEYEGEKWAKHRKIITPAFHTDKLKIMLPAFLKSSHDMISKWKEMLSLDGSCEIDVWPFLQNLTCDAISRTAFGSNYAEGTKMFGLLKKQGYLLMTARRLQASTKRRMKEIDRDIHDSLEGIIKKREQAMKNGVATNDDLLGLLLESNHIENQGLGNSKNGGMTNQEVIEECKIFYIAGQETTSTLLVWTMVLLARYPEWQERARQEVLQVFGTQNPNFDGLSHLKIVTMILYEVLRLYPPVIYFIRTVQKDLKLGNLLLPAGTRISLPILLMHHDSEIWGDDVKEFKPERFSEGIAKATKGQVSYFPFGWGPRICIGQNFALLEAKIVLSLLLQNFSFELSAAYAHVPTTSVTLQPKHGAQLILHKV

VaCYP72A694 = molecular target: T14, VaCYP72A694 (Vigna angularis, UniProt A0A5P8TXJ3); format: cell-based; conditions: beta-amyrin formed in the cell by co-expressed OSC1; L. japonicus CPR; 30°C, 4 days
T14 construct: gene CYP72A694; full length, expressed in S. cerevisiae INVSc1 with Lotus japonicus CPR and beta-amyrin synthase OSC1
T14 sequence (A0A5P8TXJ3 entry or part of it): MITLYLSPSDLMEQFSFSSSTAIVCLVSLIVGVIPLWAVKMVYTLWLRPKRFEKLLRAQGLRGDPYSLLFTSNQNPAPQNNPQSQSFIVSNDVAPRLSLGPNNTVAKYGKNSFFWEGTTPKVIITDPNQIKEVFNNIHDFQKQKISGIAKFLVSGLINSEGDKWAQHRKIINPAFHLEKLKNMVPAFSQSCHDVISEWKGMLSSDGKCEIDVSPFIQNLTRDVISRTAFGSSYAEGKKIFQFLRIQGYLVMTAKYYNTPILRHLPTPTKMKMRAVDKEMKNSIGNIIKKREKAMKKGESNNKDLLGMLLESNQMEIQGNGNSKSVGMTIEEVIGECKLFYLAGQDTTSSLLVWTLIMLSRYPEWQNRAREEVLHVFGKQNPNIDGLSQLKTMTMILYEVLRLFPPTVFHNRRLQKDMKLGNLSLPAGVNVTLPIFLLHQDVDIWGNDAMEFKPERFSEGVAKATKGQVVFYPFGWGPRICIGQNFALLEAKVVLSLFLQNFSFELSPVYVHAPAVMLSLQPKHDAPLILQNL

GpCYP72A154 = molecular target: T15, GpCYP72A154 (Glycyrrhiza pallidiflora, UniProt A0A5P8TXI9); format: cell-based; conditions: beta-amyrin formed in the cell by co-expressed OSC1; L. japonicus CPR; 30°C, 4 days
T15 construct: gene CYP72A154; full length, expressed in S. cerevisiae INVSc1 with Lotus japonicus CPR and beta-amyrin synthase OSC1
T15 sequence (A0A5P8TXI9 1-523): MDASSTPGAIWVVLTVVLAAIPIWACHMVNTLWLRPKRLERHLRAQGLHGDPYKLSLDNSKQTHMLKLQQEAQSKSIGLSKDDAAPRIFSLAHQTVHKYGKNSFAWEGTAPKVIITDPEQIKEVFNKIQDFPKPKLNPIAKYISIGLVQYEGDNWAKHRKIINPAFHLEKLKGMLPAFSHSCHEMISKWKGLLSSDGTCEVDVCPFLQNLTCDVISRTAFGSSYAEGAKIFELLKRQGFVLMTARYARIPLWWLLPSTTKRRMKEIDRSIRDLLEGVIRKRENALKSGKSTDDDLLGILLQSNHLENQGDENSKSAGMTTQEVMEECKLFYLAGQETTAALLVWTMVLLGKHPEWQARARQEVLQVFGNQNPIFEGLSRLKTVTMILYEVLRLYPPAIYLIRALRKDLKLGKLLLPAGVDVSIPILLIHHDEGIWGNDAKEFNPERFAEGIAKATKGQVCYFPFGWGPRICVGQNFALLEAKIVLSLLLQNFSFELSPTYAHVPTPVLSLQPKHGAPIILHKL

CC1(C)CC[C@]2(C)CC[C@]3(C)C(=CC[C@@H]4[C@@]5(C)CC[C@H](O)C(C)(C)[C@@H]5CC[C@]43C)[C@@H]2C1 [β-amyrin]
in vivo yeast assay, GC-MS of products (CYP72A63 [1]): CYP72A63^L149V/L398V and CYP72A63^L149V/L398I had altered product regioselectivity resembling their counterparts | in vivo yeast assay, GC-MS of products (PvCYP72A302): regioselectivity in the C-29 position was common among them | in vivo yeast assay, GC-MS of products (CYP72A559): CYP72A559 and CYP72A560 showed oxidation activity against β-amyrin at the D or E ring | in vivo yeast assay, GC-MS of products (Gmax CYP72A141): in vivo enzymatic assays showed that they have regioselectivity in the C-29 position | in vivo yeast assay, GC-MS of products (CYP72A560): CYP72A559 and CYP72A560 showed oxidation activity against β-amyrin at the D or E ring | in vivo yeast assay, GC-MS of products (GgCYP72A154): GuCYP72A154 and GgCYP72A154 oxidized β-amyrin with less regioselectivity at the D or E ring | in vivo yeast assay, GC-MS of products (CYP72A66v2): β-Amyrin C-22β oxidation activity was also detected in CYP72A66v2 (subgroup III) | in vivo yeast assay, GC-MS of products (CYP72A63 [2]): CYP72A63 showed oxidation activity against β-amyrin at the C-30 position | in vivo yeast assay, GC-MS of products (TpCYP72A699): regioselectivity in the C-29 position was common among them | in vivo yeast assay, GC-MS of products (CYP72A62v2): CYP72A62v2^V149L/V398L produced only C-30 oxidized products, 30-hydroxy-β-amyrin and 11-deoxoglycyrrhetinic acid | in vivo yeast assay, GC-MS of products (CYP72A61v2): showed oxidation activity against β-amyrin at position C-22β, producing sophoradiol | in vivo yeast assay, GC-MS of products (GuCYP72A154): GuCYP72A154 and GgCYP72A154 oxidized β-amyrin with less regioselectivity at the D or E ring | in vivo yeast assay, GC-MS of products (LjCYP72A697): in vivo enzymatic assays showed that they have regioselectivity in the C-29 position | in vivo yeast assay, GC-MS of products (VaCYP72A694): in vivo enzymatic assays showed that they have regioselectivity in the C-29 position | in vivo yeast assay, GC-MS of products (GpCYP72A154): the non-glycyrrhizin-producing species GpCYP72A154 oxidized β-amyrin
